Assay results published in patent US4794079A, “Determination of hydrogen peroxide using fluorogenic dihydroquinolone and dihydrocoumarin indicators” (Miles Inc., priority 1985, dated 1988).

Target: T1, horseradish peroxidase (Armoracia rusticana, UniProt P00433)
T1 sequence (P00433 31-353): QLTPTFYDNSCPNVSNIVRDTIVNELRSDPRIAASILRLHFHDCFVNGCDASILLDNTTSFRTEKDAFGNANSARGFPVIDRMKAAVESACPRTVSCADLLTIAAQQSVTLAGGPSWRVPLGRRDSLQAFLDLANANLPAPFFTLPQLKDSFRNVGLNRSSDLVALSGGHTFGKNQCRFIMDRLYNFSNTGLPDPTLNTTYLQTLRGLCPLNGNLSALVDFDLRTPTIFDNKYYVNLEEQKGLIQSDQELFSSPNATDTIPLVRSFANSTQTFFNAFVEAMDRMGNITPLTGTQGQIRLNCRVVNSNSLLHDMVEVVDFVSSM
Test: Detection of hydrogen peroxide: fluorescence of indicator compounds after adding horseradish peroxidase and hydrogen peroxide
Type: biochemical
Conditions: 1.0 μM compound; for Relative Fluorescence of Indicator Compounds, Fluorescence Units, 0 secs: sodium phosphate buffer pH 7.0 or 7.5, 37° C., nM of fluorescent standard 7-hydroxy-3-(N-ethylcarboxamido)coumarin giving the same light output
Experimental: A 1.0 μM, pH 7.0 or 7.5, sodium phosphate buffer solution of the dihydroquinolones and dihydrocoumarins listed in the Table below were prepared by successive dilutions with the buffer of an ethanol or DMF-ethanol solution of the appropriate compound. The solution was warmed in a 37° C. bath, then a 40 microliter (μL) of 1 mg/mL horseradish peroxidase enzyme was added in one portion. The contents of the cuvette were mixed and the fluorescence was monitored for at least 50 seconds (the quartz cell and its contents were held at a constant 37° C.). A quantity of hydrogen peroxide diluted in cold water and stored at 0° for less than eight hours was then added in an amount suitable for the desired ratio of dihydroquinolone to peroxide. The fluorescence was then monitored over a 600 second time span. Fluorescent values for compounds (5), (6), (7), (11), (16), and (17) were reported in units of concentration (nM) of the flourescent standard 7 -hydroxy-3-(N-ethylcarboxamido) coumarin (U.S. Pat. No. 4,273,715) which would be required to achieve the same fluorescence light output as the subject of study. Compound (8) is reported in photons/second. All slit widths were set at 2 nm (nanometers).
Fluorescence was measured in quartz cuvettes on an SLM 8000 spectrofluorometer (SLM Instruments, Inc. Urbana, Ill.). A Hewlett-Packard8915A computer was used to process spectra.

[1] = 25 secs, pH 7.0 or 7.5, 37° C., nM of fluorescent standard equivalent
[2] = 100 secs, pH 7.0 or 7.5, 37° C., nM of fluorescent standard equivalent
[3] = 200 secs, pH 7.0 or 7.5, 37° C., nM of fluorescent standard equivalent
[4] = 600 secs, pH 7.0 or 7.5, 37° C., nM of fluorescent standard equivalent

Row | SMILES | Relative Fluorescence of Indicator Compounds, Fluorescence Units, 0 secs (0 secs) | Relative Fluorescence of Indicator Compounds, Fluorescence Units, 25 secs [1] | Relative Fluorescence of Indicator Compounds, Fluorescence Units, 100 secs [2] | Relative Fluorescence of Indicator Compounds, Fluorescence Units, 200 secs [3] | Relative Fluorescence of Indicator Compounds, Fluorescence Units, 600 secs [4] | Relative Fluorescence of Indicator Compounds, Fluorescence Units, 50 secs (50 secs, pH 7.0 or 7.5, 37° C., nM of fluorescent standard equivalent) | Fluorescence Units, 0 secs (0 secs, pH 7.0 or 7.5, 37° C., excitation 400 nm, emission 450 nm) | Fluorescence Units, 25 secs (25 secs, pH 7.0 or 7.5, 37° C., excitation 400 nm, emission 450 nm) | Fluorescence Units, 50 secs (50 secs, pH 7.0 or 7.5, 37° C., excitation 400 nm, emission 450 nm) | Fluorescence Units, 100 secs (100 secs, pH 7.0 or 7.5, 37° C., excitation 400 nm, emission 450 nm) | Fluorescence Units, 200 secs (200 secs, pH 7.0 or 7.5, 37° C., excitation 400 nm, emission 450 nm) | Fluorescence Units, 600 secs (600 secs, pH 7.0 or 7.5, 37° C., excitation 400 nm, emission 450 nm)
1 | CCOC(=O)C1Cc2cc3c4c(c2OC1=O)CCCN4CCC3 (stereo not shown) [Compound 17, [2,3,6,7,9,10]-Hexahydro-10-carbethoxy-11-oxo-1H,5H,11H-[1]benzopyran[6,7,8-ij]quinolizine] | 0.6 nM | 8.8 nM | 13.0 nM | 25.9 nM | 42.5 nM |  |  |  |  |  |  | 
2 | CCNC(=O)C1Cc2ccc(N(C)C)cc2N(C)C1=O (stereo not shown) [Compound 11, 7-Dimethylamino-3-(N-ethylcarboxamido)-3,4-dihydro-1-methyl-2-quinolone] | 4.3 nM | 8.9 nM | 101.5 nM | 133.5 nM | 142.5 nM |  |  |  |  |  |  | 
3 | CCOC(=O)C1Cc2ccc(N(C)C)cc2NC1=O (stereo not shown) [Compound 5, 7-Dimethylamino-3-carbethoxy-3,4-dihydro-2-quinolone] | 1.4 nM | 81.5 nM | 101.5 nM | 101.5 nM | 101.25 nM |  |  |  |  |  |  | 
4 | CCOC(=O)C1Cc2ccc(NC)cc2NC1=O (stereo not shown) [Compound 6, 7-Methylamino-3-carbethoxy-3,4-dihydro-2-quinolone] | < 0.12 nM | 4.0 nM | 11.0 nM | 11.25 nM | 10.8 nM | 8.75 nM |  |  |  |  |  | 
5 | CCNC(=O)C1Cc2ccc(N(C)C)cc2NC1=O (stereo not shown) [Compound 8, 7-Dimethylamino-3-(N-ethylcarboxamido)-3,4-dihydro-2-quinolone] |  |  |  |  |  |  | < 428 photons/second | 20,142 photons/second | 27,000 photons/second | 29,000 photons/second | 30,000 photons/second | 30,000 photons/second
6 | CN(C)c1ccc2c(c1)NC(=O)C(C(=O)[O-])C2.[K+] (stereo not shown) [Compound 7, 7-Dimethylamino-3-carboxy-3,4-dihydro-2-quinolone potassium salt] | 1.4 nM | 12.3 nM | 22.2 nM | 24.3 nM | 24.6 nM |  |  |  |  |  |  | 
7 | CCOC(=O)C1Cc2ccc(O)cc2N(C)C1=O (stereo not shown) [Compound 16, 7-Hydroxy-3-carbethoxy-3,4-dihydro-1-methyl-2-quinolone] | 1.3 nM | 4.3 nM | 5.7 nM | 6.3 nM | 6.3 nM |  |  |  |  |  |  | 
